These results are taken from article PMC7731314, “Tropinone-Derived Alkaloids as Potent Anticancer Agents: Synthesis, Tyrosinase Inhibition, Mechanism of Action, DFT Calculation, and Molecular Docking Studies” (International Journal of Molecular Sciences, 2020).

Like-named read-outs stand apart in the source and are kept apart here.

Series [1] in a line: in vitro.
Procedure: (§3) The human normal skin fibroblasts, i.e., the HSF cell line, were a laboratory strain obtained with the outgrowth technique from skin explants from young volunteers (with subjects’ written informed consent). […] The CCD18-Co cells were grown in Eagle Medium (Sigma-Aldrich, St. Louis, MO, USA) supplemented with 2 mM L-glutamine (Sigma-Aldrich) and 1mM sodium pyruvate (Sigma-Aldrich, St. Louis, MO, USA), 10% FBS, (without antibiotics). HSF were cultured in a 1:1 mixture of Dulbecco’s modified Eagle Medium and Eagle Medium (Sigma-Aldrich) containing 10% FBS, 100 units/mL of penicillin, and 100 mg/mL of streptomycin. […] All cell lines were cultured in a humidified 5% CO2 atmosphere at a temperature of 37 °C. A stock solution of each tested compound was made in dimethylsulfoxide (DMSO; Sigma-Aldrich) and stored at 4 °C until use. The drug was diluted in an appropriate culture medium immediately before use.
(§4) The influence of the tested compounds on normal cell viability was estimated with the MTT assay. The CCD-18Co and HSF cells were seeded in 96-well microplates at a density of 1 × 10^5 cells/mL in complete growth medium. The next day, the medium was replaced with a fresh one containing 2% FBS (growth restriction) and the cells were exposed to each tested compound (3.156–100 µM) to study the acute toxicity in vitro. After 24-h incubation, the medium was removed and the cells were incubated for 3 h with an MTT solution; next, formazan crystals were solubilized overnight by adding SDS buffer and absorbance was determined at a wavelength of 570 nm using an EL800 Microplate Reader (BioTek Instruments, Winooski, VT, USA). The absorbance of the control wells was taken as 100% and the cell viability was expressed as a percentage of the control. CC50 values, defined as concentrations of the compounds necessary to reduce cell viability by 50%, were calculated from nonlinear regression (log(inhibitor) vs. normalized response-variable slope) using GraphPad Prism 5.0.
For series [2], the system named is mouse skin melanoma (B16-F10) cell line. In words: MTT cell proliferation assay, B16-F10. It counts as cell-based. As to conditions: read-out: IC50 ± SD B16-F10. From the text:
(§1) The influence of the tested compounds on the proliferation of melanoma B16F10 and breast MDA-MB-231 cells was estimated with the MTT assay as described previously. The cells counted using an automated cell counter (Countess® II FL, Invitrogen by Thermo Fisher Scientific Inc., Waltham, MA USA) and plated in 96-well plates (Nunc Edge 2F, Thermo Fisher Scientific Inc.) at a density of 0.1 × 10^4 and 0.2 × 10^4 per well, respectively. A total of twenty-four hours later, drugs were applied with final concentration: 5, 0.5, 0.05, and 0.005 μg/mL, and after an additional seventy-two hours MTT staining was performed as follows: twenty microliters of 5 mg/mL MTT solution and was added to each well of 96-well plate incubated for 2 h. Subsequently, the medium was removed and crystals of formazan were solubilized in pure isopropanol. Absorbance readout was conducted immediately using plate reader Multiskan Spectrum at 570 nm (Thermo Electron Corporation, Waltham, MA, USA). The background optical density was measured in the wells filled with culture medium, without the cells. The biological evaluation was performed as three independent experiments. The IC50 values were calculated using ED50plus v 1.0 freeware software and the mean response and standard deviation were calculated using Excel software. All of the chemicals were obtained from Sigma-Aldrich.

For series [3], the system named is human multiple myeloma (RPMI 8226) cell line. In words: MTT cell proliferation assay, RPMI 8226. Format: cell-based. As to conditions: antiproliferative, 96 h, read-out: IC50 ± SD RPMI 8226. On the procedure:
(§2) The influence of the tested compounds on the proliferation of RPMI 8226 and A549 cells was estimated with the MTT assay as described previously. Briefly, 1 × 10^4 cells/mL (RPMI 8226) or 0.2 × 10^4 (A549) cells per well were seeded into 96-well plates and cultured (in growth medium containing 10% FBS) with different concentrations of each compound ranging from 3.125 to 100 μM. The control cells were treated with the vehicle DMSO (0.1%).

The test system of series [4] is human normal skin fibroblasts (HSF).
Procedure: as §3, §4
The subject of series [5] is human lung carcinoma (A549) cell line. In words: MTT cell proliferation assay, A549. Format: cell-based. As to conditions: antiproliferative, 96 h, read-out: IC50 ± SD A549. On the procedure:
as §2

The subject of series [6] is human breast adenocarcinoma (MDA-MB-231) cell line. In words: MTT cell proliferation assay, MDA-MB-231. Format: cell-based. Particulars: read-out: IC50 ± SD MDA-MB-231.
Text: as §1

Series [7] is described as follows: in vitro. As to conditions: human.
Procedure: as §3, §4
For the next series, the target named is mushroom tyrosinase (Agaricus bisporus, UniProt C7FF04). Nature of the series: Kinetic analysis of the inhibition of tyrosinase (Lineweaver-Burk). Format: biochemical. As to conditions: tyrosinase-catalyzed oxidation of L-DOPA. The method, then:
To understand the mechanism of mushroom tyrosinase inhibition by new compounds 3a–3h, enzyme inhibition kinetic studies were performed. The mechanism of tyrosinase inhibition was determined using Lineweaver–Burk plot, which is a useful graphical method for analysis of the Michaelis–Menten equations used to determine the inhibition constant […].
A series of experiments were performed to determine the inhibition kinetics of compounds by following the already reported method. The inhibitor concentrations for compounds were 50 and 100 µM. Substrate L-DOPA concentration was between 100 and 250 µM in all kinetic studies. Maximal initial velocity was determined from the initial linear portion of absorbance up to ten minutes after addition of enzyme. The inhibition type of the enzyme, Michaelis constant (KM) and maximal velocity (Vmax) were determined by Lineweaver–Burk plots of inverse of velocities (1/V) versus inverse of substrate concentration 1/[L-DOPA] mM^−1.

In series [8] the test system is human normal colon fibroblasts (CCD-18Co).
Procedure: as §3, §4
Where [9] appears, read: B16-F10, antiproliferative, MTT, 72 h.
Setting [10] is: MDA-MB-231, antiproliferative, MTT, 72 h.

mushroom tyrosinase, sequence (C7FF04 1-392): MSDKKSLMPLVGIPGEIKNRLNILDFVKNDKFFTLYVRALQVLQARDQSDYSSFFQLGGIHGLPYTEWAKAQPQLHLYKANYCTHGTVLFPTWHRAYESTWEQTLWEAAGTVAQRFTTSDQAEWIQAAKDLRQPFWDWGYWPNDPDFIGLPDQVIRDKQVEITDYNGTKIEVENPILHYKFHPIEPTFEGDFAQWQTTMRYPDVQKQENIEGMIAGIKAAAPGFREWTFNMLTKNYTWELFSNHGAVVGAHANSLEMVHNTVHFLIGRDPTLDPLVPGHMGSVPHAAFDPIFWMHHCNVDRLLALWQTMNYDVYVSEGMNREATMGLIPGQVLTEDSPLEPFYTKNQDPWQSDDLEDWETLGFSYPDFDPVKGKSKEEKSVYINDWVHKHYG

On to `CC(=O)Nc1ccc(-c2csc(NN=C3CC4CCC(C3)N4C)n2)cc1` [Compound 3h, N-(4-[2-[2-(8-Methyl-8-azabicyclo[3.2.1]oct-3-ylidene)hydrazinyl]-1,3-thiazol-4-yl]phenyl)acetamide], for which the melting point lay within 97 to 99 °C. This molecule came in with a CC50 at 24 h in the series “in vitro [1]” of over 100 µM. In [2] (setting [9]), the IC50 came out at 3.03 ± 0.18 µM. Further, the IC50 in [3] came out at 108 ± 4.8 µM. Also, the “CC50 ± SD HSF” value in [4] is reported as “no toxicity”. Besides, the IC50 in series [5] is 189 ± 33 µM. For the same molecule, in [6] (setting [10]), the IC50 came to 2.9 ± 0.25 µM. This molecule displayed a CC50 at 24 h in “in vitro [7]” of over 100 µM. The “Inhibitory Mechanism” value on mushroom tyrosinase is “mixed”. The “CC50 ± SD CCD-18Co” value in [8] is given as “no toxicity”.

With `CN1C2CCC1CC(=NNc1nc(-c3ccc(C#N)cc3)cs1)C2` [Compound 3c, 4-[2-[2-(8-Methyl-8-azabicyclo[3.2.1]oct-3-ylidene)hydrazinyl]-1,3-thiazol-4-yl]benzonitrile], the melting point lay within 90 to 92 °C. Further, the IC50 in series [2] (setting [9]) is 1.52 ± 0.13 µM. In addition, the IC50 in series [3] is 31.7 ± 2.77 µM. In addition, the IC50 in [5] came out at 74.9 ± 7.65 µM. The IC50 in series [6] (setting [10]) was 2.7 ± 0.14 µM. Besides, at mushroom tyrosinase, the “Inhibitory Mechanism” value is “mixed”.

The molecule `CN1C2CCC1CC(=NNc1nc(-c3cc4ccccc4oc3=O)cs1)C2` [Compound 3g, 3-[2-[2-(8-Methyl-8-azabicyclo[3.2.1]oct-3-ylidene)hydrazinyl]-1,3-thiazol-4-yl]-2H-chromen-2-one] had a melting point of 110 to 113 °C. Besides, in the series “in vitro [1]”, the CC50 at 24 h stood at 35.3 ± 5.52 µM. Besides, the IC50 in series [2] (setting [9]) came to 3 ± 0.26 µM. The IC50 in [3] was found to be 23.2 ± 4.52 µM. The half-maximal inhibitory concentration (IC50) in series [5] came to 29.3 ± 3.98 µM. For the same molecule, the IC50 in series [6] (setting [10]) amounted to 2.83 ± 0.06 µM. The molecule further displayed a CC50 at 24 h in “in vitro [7]” of 42.6 ± 5.89 µM. At mushroom tyrosinase, the “Inhibitory Mechanism” value is “mixed”.

`CN1C2CCC1CC(=NNc1nc(-c3ccc(N)cc3)cs1)C2` [Compound 3e, 4-[2-[2-(8-Methyl-8-azabicyclo[3.2.1]oct-3-ylidene)hydrazinyl]-1,3-thiazol-4-yl]aniline] yielded a melting point of 85 to 87 °C. In “in vitro [1]”, the CC50 at 24 h is over 100 µM. In series [2] (setting [9]), the IC50 turned out to be 2.68 ± 0.4 µM. For the same molecule, in series [3], the IC50 stood at 67 ± 7.14 µM. Moreover, the “CC50 ± SD HSF” value in series [4] was “no toxicity”. Also, the IC50 in [5] turned out to be 263 ± 105 µM. The IC50 in [6] (setting [10]) was 2.81 ± 0.12 µM. The CC50 at 24 h in “in vitro [7]” is over 100 µM. The “Inhibitory Mechanism” value on mushroom tyrosinase is “mixed”. Besides, in [8], the “CC50 ± SD CCD-18Co” value is “no toxicity”.

Consider `O=C(O)CCCc1ccc(N(CCCl)CCCl)cc1` [Chlorambucil, reference compound], for which the IC50 was found to be 2.92 ± 0.1 µM in series [2] (B16-F10, 72 h) and 4.71 ± 0.5 µM in [6] (MDA-MB-231, 72 h).

Turning to `COc1ccc(-c2csc(NN=C3CC4CCC(C3)N4C)n2)cc1` [Compound 3b, 4-(4-Methoxyphenyl)-2-(2-(8-methyl-8-azabicyclo[3.2.1]octan-3-ylidene)hydrazinyl)thiazole], the melting point was in the range of 91 to 93 °C. For the same molecule, the IC50 in series [2] (setting [9]) amounted to 2.2 ± 0.04 µM. Also, in series [3], the IC50 is 42.2 ± 4.55 µM. Moreover, in [5], the IC50 came out at 133 ± 25.1 µM. The IC50 in series [6] (setting [10]) was determined as 2.53 ± 0.07 µM. The “Inhibitory Mechanism” value at mushroom tyrosinase is “mixed”.

`CN1C2CCC1CC(=NNc1nc(-c3ccc(NS(C)(=O)=O)cc3)cs1)C2` [Compound 3f, N-(4-[2-[2-(8-Methyl-8-azabicyclo[3.2.1]oct-3-ylidene)hydrazinyl]-1,3-thiazol-4-yl]phenyl)methane-sulfonamide] returned a melting point of 98 to 100 °C. The molecule also yielded a CC50 at 24 h in “in vitro [1]” of 98.7 ± 4.16 µM. Further, in [2] (setting [9]), the IC50 was 2.14 ± 0.23 µM. For the same molecule, the IC50 in series [3] came out at 107 ± 7.22 µM. In addition, in series [4], the “CC50 ± SD HSF” value was “weak”. Further, the IC50 in series [5] is 117 ± 22.8 µM. Besides, the concentration for half-maximal inhibition (IC50) in series [6] (setting [10]) was found to be 2.48 ± 0.08 µM. The molecule also displayed a CC50 at 24 h in “in vitro [7]” of over 100 µM. The “Inhibitory Mechanism” value at mushroom tyrosinase is reported as “mixed”. For the same molecule, in series [8], the “CC50 ± SD CCD-18Co” value was “no toxicity”.

Consider `CN1C2CCC1CC(=NNc1nc(-c3ccc([N+](=O)[O-])cc3)cs1)C2` [Compound 3d, 4-(4-Nitrophenyl)-2-(2-(8-methyl-8-azabicyclo[3.2.1]octan-3-ylidene)hydrazinyl)thiazole], for which the melting point is 99 to 101 °C. In [2] (setting [9]), the IC50 is 1.91 ± 0.04 µM. Further, in series [3], the IC50 was found to be 17.9 ± 1.78 µM. In addition, the IC50 in [5] was determined as 31 ± 4.62 µM. The IC50 in series [6] (setting [10]) was 2.44 ± 0.14 µM. For the same molecule, the “Inhibitory Mechanism” value at mushroom tyrosinase is given as “mixed”.
